The numbers were not newly measured in US20220160758A1, “ANTIVIRAL, ANTIBACTERIAL AND/OR ANTI FUNGAL COMPOSITIONS, APPLICATIONS AND THERAPY” (AVITAS BIO CORP., priority 2020, published 2022), which cites them from elsewhere.

Structures are written as SMILES.

The test system of one data set is bacteriophage PR4. Particulars: in vitro.
The test system of data set [1] is gram-positive and gram-negative microorganisms. The note with it: at the concentrations tested.

`CCCCCCCC/C=C\CCCCCCCC(=O)O` [oleic acid]: the inactivating the virus entry in the data set with bacteriophage is on record as “most effective”. The “inhibition of viral replication” value in the data set with bacteriophage PR4 is “most effective”. Turning to `CCCCCC/C=C\CCCCCCCC(=O)O` [palmitoleic acid], the “inhibition of viral replication” value with bacteriophage PR4 is “most effective”.

Turning to `CCCCC/C=C\C/C=C\C/C=C\C/C=C\CCCC(=O)O` [arachidonic acid], the “inhibition of viral replication” value with bacteriophage PR4 is listed as “moderately effective”. Besides, the growth inhibition entry in data set [1] was “not inhibitory”.
